Data from patent US12508262B2, “Methods of using ALK2 inhibitors” (Keros Therapeutics, Inc., priority 2020, dated 2025).

How the values were obtained:
[1] = test system: mouse model of IRIDA; assay: TMPRSS6 siRNA mouse model of IRIDA; type: in vivo, C57BL/6 mice
Protocol: To establish a murine model of IRIDA, eight-week-old male C57BL/6 mice were dosed intravenously with lipid encapsulated siRNA targeted against either Luciferase (control) or TMPRSS6 (0.75 mg/kg). Following confirmation of disease at day 8 post initial siRNA administration, once-daily oral dosing with the compound of Formula I-42 (5 mg/kg) or vehicle commenced. A second siRNA administration was given on day 10. Studies were terminated 18 days post initial siRNA administration. Hematological parameters, serum iron, and serum hepcidin were measured at the end of the study.

[2] = test system: mouse model of chronic kidney disease (CKD); assay: Adenine-induced mouse model of chronic kidney disease; type: in vivo, C57Bl/6 mice
Protocol: To induce chronic kidney disease (CKD), 6-week-old C57Bl/6 mice were dosed daily via PO administration with 50 mg/kg of adenine or vehicle. After six weeks of adenine administration, a representative group of mice were taken down and tested to confirm anemia. Concomitantly, the remainder of the CKD mice began dosing with either vehicle or the compound of Formula I-42 5 mg/kg PO daily. Mice were dosed with vehicle or the compound of Formula I-42 while still receiving daily adenine for 10 days. The study was terminated at 52 days and hematology (Heska, Element HT-5), serum hepcidin (Intrinsic Biosciences, Hepcidin Murine Compete), and serum iron (Bioassay Systems, QuantiChrom Kit) levels were assessed.

[3] = test system: healthy volunteers; assay: Phase 1 single- and multiple-ascending dose study, pharmacodynamic endpoints (serum iron, transferrin saturation, ferritin, hepcidin, reticulocyte hemoglobin, cholesterol); type: in vivo, human; conditions: for transferrin saturation, mean percent change from baseline / serum iron, mean change from baseline: Day 4, multiple ascending doses; for transferrin saturation, mean percent change from baseline: placebo 0.3%; for serum iron, mean change from baseline: placebo 1.4
Description: (§1) The primary objectives of this study were to a) evaluate safety and tolerability of escalating doses of the compound of Formula I-11 administered as single and multiple oral doses in healthy male volunteers and healthy postmenopausal female volunteers and b) evaluate the PK parameters following escalating doses of the compound of Formula I-11 administered as single and multiple oral doses. The secondary objective of this study was to evaluate the pharmacodynamic (PD) parameters following escalating doses of the compound of Formula I-11 administered as single and multiple oral doses. This study was conducted in two parts.
(§2) Participants in Part 1 received a single oral dose of the compound of Formula I-11 or placebo on Day 1 and serial PK samples were collected. Baseline assessments were performed on day −1 prior to dosing. Samples were collected for determination of pharmacodynamic parameters at pre-dose daily and up to 24 hours post dose (day 2) after a single oral dose of the compound of Formula I-11. Participants remained at the study site for observation for 24 hours post-dose through the PK sample collection on Day 2. Participants returned to the site for the 48, 72, and 120-hour post-dose sample collection on Days 3, 4, and 6. Safety was evaluated by a Safety Review Committee prior to escalation to the next dose level cohort.
(§3) Participants in Part 2, Cohorts 1 through 3, received a daily oral dose of the compound of Formula I-11 (50, 100, or 200 mg liquid formulation respectively) or placebo for 7 days. A daily oral dose of the compound of Formula I-11 or placebo in participants in Part 2, Cohort 4 (350 mg liquid formulation) was planned for 14 days but was discontinued early in all subjects, either by the Investigator because of AEs, or by the Sponsor. A decision was made by the Sponsor to discontinue dosing of the entire cohort based on the frequency of AEs and laboratory abnormalities after Day 9. In Cohort 4, participants on the compound of Formula I-11 received daily oral dosing of 350 mg for up to 7 days; one placebo participant received daily oral dosing for 9 days. Samples were collected for determination of pharmacodynamic parameters at pre-dose daily and to 24 hours post dose (day 8) while on drug. Daily trough PK samples were collected for the determination of steady-state from Day 2 to Day 12 or 13. Participants returned to the site on Day 30 for an end-of-study visit. Safety was evaluated by a Safety Review Committee prior to escalation to the next dose level cohort.
Part 2, MAD Cohort 5 (C5) participants received either the compound of Formula I-11, 100 mg (n=8) or placebo (n=2) on Days 1, 2, 3, 4, 5, 6, 7. The last dose was administered on the morning of Day 7. Serial PK sample collection for the determination of steady-state concentrations of the compound of Formula I-11 was done at pre-dose and up to 24 hours post-dose, beginning on Day 1, 4 and 7. Participants returned for follow-up visits on […], and Day 30 for an end-of-study visit.
Pharmacodynamic endpoints: Protocol-specified endpoints were assessed at baseline and regularly throughout the study period. These assessments included measurements of serum iron, transferrin saturation (calculated as serum iron/total iron-binding capacity), serum ferritin, serum hepcidin, and reticulocyte hemoglobin content, serum cholesterol, LDL, and HDL cholesterol. Measurements of all pharmacodynamic end points were made using standard clinical laboratory tests. Hepcidin analysis was performed using an ELISA kit from Intrinsic LifeSciences (Intrinsic Hepcidin IDx™ ELISA kit).

[4] = Phase 1 single- and multiple-ascending dose study, PK parameters; type: in vivo, human
Description: as §1
as §2, with “Participants remained at the study site for observation for 24 hours post-dose through the PK sample collection on Day 2. Participants returned to the site for the 48, 72, and 120-hour post-dose sample collection on Days 3, 4, and 6.” left out
Participants in Part 2, Cohorts 1 through 3, received a daily oral dose of the compound of Formula I-11 (50, 100, or 200 mg liquid formulation respectively) or placebo for 7 days. […] Safety was evaluated by a Safety Review Committee prior to escalation to the next dose level cohort. […]

[5] = test system: healthy volunteers; assay: Phase 1 single- and multiple-ascending dose study, safety and tolerability; type: in vivo, human
Description: A total of 131 healthy, males aged 18 to 60 years and post-menopausal females aged 45 to 60 years, participated in this study.
as §1
Part 1 included 80 participants (10 cohorts of 8 participants each). Male and female participants who met the eligibility criteria were randomly assigned, in a ratio of 3:1 to receive the compound of Formula I-11 or matching placebo, N=6 and 2 per dose cohort, respectively. Participant enrollment included […] males and 12.5% females (postmenopausal). The IMP formulation used in Cohorts 1 through 6 was an oral capsule (doses of 1, 3, 10, 30, 100, or 300 mg capsule formulation). An oral liquid formulation was evaluated in Cohorts 7 through 10 (doses of 30, 100, 300 or 450 mg liquid formulation).
as §2
Part 2, Cohorts 1 through 4, included 41 participants (4 cohorts of 10 participants each and 1 additional placebo participant in Cohort 1). Male and female participants who met the eligibility criteria were randomly assigned at a ratio of 4:1 to receive either the compound of Formula I-11 oral liquid formulation or matching placebo, N=8 and 2 per dose cohort respectively. Forty (97.6%) males and 1 (2.4%) female (placebo) participant were enrolled.
as §3
Part 2, MAD Cohort 5 (C5) participants received either the compound of Formula I-11, 100 mg (n=8) or placebo (n=2) on Days 1, 2, 3, 4, 5, 6, 7. The last dose was administered on the morning of Day 7. […]

[6] = 5 mg/kg once-daily oral from day 8, study termination (day 18)
[7] = 5 mg/kg once-daily oral from day 8, study termination (day 18), with TMPRSS6 siRNA
[8] = 5 mg/kg PO daily for 10 days, Day 52
[9] = 5 mg/kg PO daily, after 10 days
[10] = fourth dose level (350 mg daily)
[11] = second dose level (100 mg daily)
[12] = third dose level (200 mg daily)

Q: For `COc1cc2c(-c3cnn4cc(N5CC(N6CCN(C)CC6)C5)cnc34)ccnc2cc1F` [Formula I-42], which disease phenotype ([1]; 5 mg/kg once-daily oral) is on record?
A: rescued the disease phenotype

Q: And the “serum hepcidin vs vehicle-treated mice receiving TMPRSS6 siRNA” value [1, 6]?
A: decreased serum hepcidin

Q: What about the “serum iron vs vehicle-treated mice receiving TMPRSS6 siRNA” value [1, 6] of the same compound?
A: increased serum iron

Q: What about the “hematocrit vs vehicle-treated mice” value [1, 7] of the same compound?
A: increase

Q: And the “hemoglobin levels vs vehicle-treated mice” value [1, 7]?
A: increase

Q: And the “red blood cell counts vs vehicle-treated mice” value [1, 7]?
A: increase

Q: What about the “hematocrit, higher than vehicle-treated mice receiving adenine” value [2, 8] of the same compound?
A: 10.2%

Q: And the “hemoglobin, higher than vehicle-treated mice receiving adenine” value [2, 8]?
A: 10.7%

Q: And the “red blood cell counts, higher than vehicle-treated mice receiving adenine” value [2, 8]?
A: 7.1%

Q: And the “reticulocyte hemoglobin content, higher than vehicle-treated mice receiving adenine” value [2, 8]?
A: 10.4%

Q: What about the “increase in serum iron values vs vehicle treated mice receiving adenine” value [2, 9] of the same compound?
A: 108.2%

Q: And the “reduction in serum hepcidin values vs vehicle treated mice receiving adenine” value [2, 9]?
A: 85.4%

Q: For `COc1cc2c(-c3cnn4cc(N5CCC(N6CCN(C)CC6)CC5)cnc34)ccnc2cc1F` [Formula I-11], which “time to decrease in hepcidin” value ([3]; Cohort 5 (100 mg), after administration of the first dose, as early as) is on record?
A: 4 h

Q: And the “transferrin saturation, mean percent change from baseline” value ([3]; first dose level (50 mg daily))?
A: 1.6%

Q: What about the “serum iron, mean change from baseline” value ([3]; first dose level (50 mg daily)) of the same compound?
A: 1.48 μM/L

Q: And the “transferrin saturation, mean percent change from baseline” value [3, 10]?
A: 30.1%

Q: What about the “serum iron, mean change from baseline” value [3, 10] of the same compound?
A: 17.71 μM/L

Q: And the “transferrin saturation, mean percent change from baseline” value [3, 11]?
A: 1.5%

Q: What about the “serum iron, mean change from baseline” value [3, 11] of the same compound?
A: 0.59 μM/L

Q: What about the “transferrin saturation, mean percent change from baseline” value [3, 12] of the same compound?
A: 7.5%

Q: What about the “serum iron, mean change from baseline” value [3, 12] of the same compound?
A: 5.11 μM/L

Q: What about the serum ferritin ([3]; MAD cohort participants) of the same compound?
A: decreases in serum ferritin

Q: What about the “day of peak increase in reticulocyte hemoglobin content” value ([3]; MAD cohorts) of the same compound?
A: 7 days

Q: What about the “start of increase in reticulocyte hemoglobin content” value ([3]; MAD cohorts 1-4, day post-dosing) of the same compound?
A: 4 days

Q: What about the “effect on serum ferritin, single vs multiple doses” value ([3]; SAD and MAD cohorts) of the same compound?
A: observed only after multiple doses

Q: And the “time to decrease in total cholesterol” value ([3]; SAD cohorts)?
A: ≤ 24 h

Q: What about the “day of peak serum iron concentrations” value ([3]; multiple dose regimen, day of treatment) of the same compound?
A: Day 3 or 4

Q: And the “transferrin saturation, observed PD response” value ([3]; once-daily doses of 50 mg)?
A: not substantially different from placebo

Q: What about the “serum hepcidin vs placebo” value ([3]; once-daily oral over 7 days, effect similar at 50 mg, 100 mg and 200 mg) of the same compound?
A: robust decreases in baseline hepcidin

Q: What about the “hemoglobin content of reticulocytes” value ([3]; repeated administration) of the same compound?
A: increases over baseline in the hemoglobin content of reticulocytes

Q: What about the serum iron ([3]; single (SAD) or once-daily (MAD) oral administration) of the same compound?
A: rapid, robust, and sustained dose-related increases in serum iron

Q: And the “transferrin saturation, observed PD response” value ([3]; single dose of 30 mg, liquid formulation)?
A: not substantially different from placebo

Q: And the “time of peak effect on serum iron” value ([3]; single dose, Day 2, post-dose)?
A: 24 h

Q: And the transferrin saturation ([3]; single or repeated doses of 100 mg or above)?
A: sustained, dose-related increases in transferrin saturation

Q: And the total cholesterol ([3]; single or repeated oral administration (Cohorts 1-4))?
A: decreases in total cholesterol

Q: What about the half-life ([4]; both sexes, human, in vivo, oral, healthy participants, approximately) of the same compound?
A: 10 to 15 h

Q: What about the “Mean AUC and Cmax, dose proportionality” value ([4]; multiple doses from 50-200 mg) of the same compound?
A: greater than dose-proportional increases

Q: What about the “well tolerated dose level, repeated dose” value ([5]; after 7 daily oral doses, healthy participants) of the same compound?
A: up to 200 mg

Q: And the “participants who discontinued the study due to AEs” value ([5]; human, in vivo)?
A: 25%

Q: And the “AEs reported in ≥2 subjects and higher than placebo” value ([5]; in vivo)?
A: headache, nausea, vomiting, diarrhea, gastroenteritis, chills, pyrexia, myalgia, decreased appetite, lymphopenia, neutropenia, abdominal discomfort, abdominal pain (upper), dizziness, fatigue, rhinorrhea, tonsillitis, and liver enzyme increases

Q: And the “AEs that led to study drug discontinuation in three or more participants” value ([5]; in vivo)?
A: lymphopenia and chills

Q: What about the “onset of lymphopenia (% change in lymphocytes)” value ([5]; in vivo) of the same compound?
A: 5 days

Q: And the “reversibility of lymphopenia / lymphocyte changes” value ([5]; in vivo)?
A: reversible

Q: What about the serious adverse events ([5]; in vivo) of the same compound?
A: no serious adverse events

Q: And the “severity of the majority of AEs” value ([5]; in vivo)?
A: mild or moderate in severity

Q: What about the “subjects who discontinued the study due to AEs” value ([5]; in vivo) of the same compound?
A: none

Q: And the “subjects with increases in ALT >2×ULN” value ([5]; in vivo)?
A: 3 subjects

Q: What about the “development of lymphopenia (lymphocyte counts <1.0×10^9 cells/L)” value ([5]; in vivo, po) of the same compound?
A: ≥ 6 day

Q: What about the “well tolerated dose level, single dose” value ([5]; single oral dose, healthy participants) of the same compound?
A: up to 450 mg
